Assay results published in patent US20110224133A1 (University of Southern California, priority 2008, published 2011).
Entries after “also recorded” stand apart in the source; their conditions may differ. Ends that are not written are not given here. Peptide text beside a SMILES is read from it. * marks the point of attachment. Cbz = O=C(OCc1ccccc1)*; CH2F = FC*

Key:
Atg3 [1] = target: T1, Atg3 (Homo sapiens, UniProt Q9NT62); test: Co-immunoprecipitation and GST pulldown with Atg3 in HEK293T cells; type: binding; settings: HEK293T cells, 48 hr post-transfection
T1 construct: expressed in transfected cells; host or cells: HEK293T
From the text: (§1) For panel A, at 48 hr post-transfection with Flag-vFLIP and/or GFP-Atg3 (left) or Flag-vFLIP and/or GST-Atg3 (middle), HEK293T cells were used for immunoprecipitation with αFlag, αGFP, or GST pulldown, followed by immunoblotting with the indicated antibodies. For panel A (right), HEK293T cells transfected with FIag-vFLIP were used for immunoprecipitation with mouse IgG or αFlag, followed by immunoblotting with αAtg3. Panel B (top) depicts a schematic diagram of human Atg3. N,N-terminus; FR, flexible region; C, C-terminus. […] Panel C (top) depicts a schematic diagram of KSHV vFLIP. […] For panel F, NIH3T3-Vector and NIH3T3-vFLIP cells were treated with 2 nM rapamycin for 12 hr and used for IP with αAtg3, followed by immunoblotting with αLC3. In panels A-F, whole cell lysates (WCLs) were used for immunoblotting with the indicated antibodies to show expression.
(§2) WCLs were used for immunoblotting with αFlag or αGST. […] WCLs were used for immunoblotting with αFlag or αGST.
(§3) The ability of FLIP to bind to Atg3 was evaluated by co-immunoprecipitation assay. HEK293T cells were transfected with Flag-vFLIP and/or GFP-Atg3 or Flag-vFLIP and/or GST-Atg3, and at 48 hr post-transfection, cells were harvested and lysed in an NP40 buffer supplemented with complete protease inhibitor cocktail (Roche). After pre-clearing with protein A/G agarose beads for 1 hr at 4° C., whole-cell lysates were used for immunoprecipitation with αFlag, αGFP, or GST. Generally, 1-4 μg of the antibody was added to 1 ml of the cell lysate and incubated at 4° C. for 8 to 12 hr. The immunoprecipitates were then washed extensively with a lysis buffer and eluted by boiling them with an SDS loading buffer for 5 min. Following immunoprecipitation, samples were treated to immunoblot using αAtg3 (1:500) (Novus).
(§4) The overall structure of yeast Atg3 has a unique hammer-like shape with the N-terminal and C-terminal regions discretely responsible for Atg7 and Atg8 (equivalent to mammalian LC3) binding, respectively. (Yamada et al. (2007) J. Biol. Chem. 282:8036-8043). Based on the structure of yeast Atg3, human Atg3 deletion mutants fused with a GST mammalian expression vector were constructed: GST-Atg31-93, GST-Atg3193-268, GST-Atg3268-315, and GST-Atg3193-315.

mTor kinase activity = test: Immunoblot of p70S6K and S6 phosphorylation in BCBL1 cells; type: cell-based, human; settings: 12 hr, 2 μM rapamycin or 30 μM peptide
Experimental: WCLs were used for immunoblotting with αp70S6K, αphospho-specific p70S6K, αphospho-specific S6, or αactin. […] WCLs were used for immunoblotting with αFlag or αGST.
Levels of phosphorylation of p70S6K and ribosomal protein S6 in BCBL1 cells were evaluated by immunoblotting with α-p70S6K, αphospho-specific p70S6K, αphospho-specific S6, or αactin.

LC3-II [2] = test: Immunoblotting with αLC3 of peptide-treated BCBL1 cells; settings: 30 μM each, 12 hr
Experimental: For panel E, TREX-BCBL-Vector and TREX-BCBL-vFLIP cells were treated with the K-α and the K-α4 (30 μM each) peptide for 12 hr, followed by immunoblotting with αLC3 and αactin.
The K-α2 and K-α4 peptides contained KSHV vFLIP aa20-29 and aa128-139 regions, respectively, as retro-inverso versions to circumvent the proteolytic degradation (FIG. 10 and FIG. 11A). […] Peptide-treated TREX-BCBL-Vector and TREX-BCBL-vFLIP cells were subjected to immunoblotting with αLC3 and αactin.

TREX-BCBL-Vector cells [3] = test: GFP-LC3 puncta autophagy assay in peptide-treated TREX-BCBL cells; settings: 30 or 50 μM peptide, 12 hr, 2 μM rapamycin as comparison
TREX-BCBL-Vector cells [4] = test: Cell death (BC Z2 CS analyzer) in peptide-treated TREX-BCBL cells; settings: identical conditions, 30 or 50 μM peptide
Experimental: Subsequently, autophagy was quantified as means (±SD) of the combined results from three independent experiments. 2 μM rapamycin treatment was included as a control. For panels B (right), TREX-BCBL-Vector and TREX-BCBL-vFLIP cells were treated with Doxycycline for 24 hr, followed by incubation with 0, 30, or 50 μM of TAT only, the K-α2, or the K-α4 peptide (top), or TAT only, the C-α2, or the C-α4 peptide (bottom) for an additional 12 hr and a BC Z2 CS analyzer used to determine cell death (as a percentage). […] For panel G, various human lymphoma cells were treated with 0, 30, or 50 μM of the K-α2 peptide (left) or the K-α4 peptide (right) for 12 hr and cell death (as a percentage) was determined using a BC Z2 CS Analyzer. For panel H, KSHV-infected BCBL1 cells were incubated with various combinations of rapamycin (25 nM), the K-α2 peptide (20 μM), and the K-α4 peptide (20 μM). A BC Z2 CS Analyzer was used to determine cell numbers (left) and cell death at 6 days (right).
Cells treated with 2 μM rapamycin treatment were included as controls. For panel C, KSHV-infected BCBL1 cells were treated with TAT only, K-α2, K-α2m, K-α4, or K-α4m (30 or 50 μM) for 24 hr. A BC Z2 CS Analyzer was used to determine cell death (as a percentage).

BCBL1 cells = settings: 50 μM zVAD
Experimental: For panels B-C, TREX-BCBL-Vector and TREX-BCBL-vFLIP cells were mock-treated or treated with 50 μM zVAD (B) or 50 nM rapamycin (C) for indicated amounts of time (days). A BC Z2 CS Analyzer was used to determine the cell numbers (left) and cell death levels (as a percentage) at day 6 (right).
Trypan blue staining and a Beckman Coulter Z2 Particle Count and Size analyzer were used to determine cell death (as a percentage) at day 5.

Beclin1 = Beclin1 siRNA knockdown in BCBL1 cells; type: cell-based, human
From the text: For panel B, BCBL1 cells were transfected with control siRNA or Beclin1 siRNA and treated with or without rapamycin for 5 days.

[5] = test system: KSHV-infected BCBL1 cells; test: Rapamycin-induced growth suppression and death of BCBL1 cells (cell counts, scanning EM); type: cell-based, human; settings: 6 days, over 100 dead cells examined
Experimental: The effect of vFLIP on autophagy was tested in a KSHV-infected BCBL1 cell line.

[6] = target: T2, GST-Atg3 (human Atg3, full length) (human, UniProt Q9NT62 1-314); test: GST pulldown from HEK293T cells, immunoblot αFlag
T2 construct: also called GST-tagged hATG3; full-length Atg3; not shown: N-terminal GST tag

[7] = target: T3, GST-Atg3 193-315 (C-terminal region) (human, UniProt Q9NT62 193-314); test: GST pulldown with GST-Atg3, Nt and Ct, immunoblot αFlag
T3 construct: range 193-315; also called GST-Atg3 C-terminal region (Ct); not shown: N-terminal GST tag

NIH3T3 cells = test: GFP-LC3 autophagy assay in NIH3T3 cells expressing FLIP; type: cell-based, murine; settings: ectopic expression in NIH3T3 cells; Hank's solution 4 hr or 2 μM rapamycin 3 hr
LC3-II [8] = test: Anti-LC3 immunoblotting of starved NIH3T3 cells expressing FLIP; type: cell-based, murine; settings: starvation, Hank's solution 4 hr
Experimental: The arrows indicate autophagosomes.
During autophagy, an LC3 precursor (LC3-I) undergoes cleavage and lipidation to yield its processed form (LC3-II) (Mizushima et al. (2008) Nature 451:1069-1075). Immunoblotting was performed with an antibody against LC3 to further measure autophagic activity. […] Polypeptides were resolved by SDS-polyacrylamide gel electrophoresis (PAGE) and transferred to a PVDF membrane (Bio-Rad). […] The proteins were visualized by a chemiluminescence reagent (Pierce) and detected by a Fuji Phosphor Imager. […] Finally, the ability of FLIP to block autophagy in multiple cell types was evaluated.

Atg3 [9] = test: Co-immunoprecipitation and GST pulldown with Atg3 in HEK293T cells; type: binding, human; settings: GST-Atg3 deletion mutants, GST pulldown
From the text: as §1, §2, §3, §4

T2 sequence (Q9NT62 whole entry): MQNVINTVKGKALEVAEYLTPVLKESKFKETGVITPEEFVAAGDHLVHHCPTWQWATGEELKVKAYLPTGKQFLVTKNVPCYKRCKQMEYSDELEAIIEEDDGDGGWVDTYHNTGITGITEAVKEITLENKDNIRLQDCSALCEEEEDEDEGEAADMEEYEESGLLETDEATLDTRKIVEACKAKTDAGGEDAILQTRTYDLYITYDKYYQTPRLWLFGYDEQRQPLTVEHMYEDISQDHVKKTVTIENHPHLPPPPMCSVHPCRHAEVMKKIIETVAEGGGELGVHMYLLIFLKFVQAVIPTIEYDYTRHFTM
T1 sequence (Q9NT62 whole entry): as above
T3 sequence (Q9NT62 193-314 limits assumed): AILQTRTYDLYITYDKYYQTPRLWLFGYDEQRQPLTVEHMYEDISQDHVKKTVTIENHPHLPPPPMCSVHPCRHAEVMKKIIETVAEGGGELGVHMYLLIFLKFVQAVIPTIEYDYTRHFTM

With QTFLHWVYCMEN [DED2 α4 helix] the Atg3 binding (Atg3 [1]) was “individually sufficient for Atg3 binding”.

With “RRRQRRKKRGY-G-FVNLLFLVVE (RRRQRRKKRGYGFVNLLFLVVE; not fully specified (some residues); also: retro-inverso D-amino acids) [K-α2]” the “phosphorylation of p70S6K” value (mTor kinase activity) was “marginal reduction”, the “phosphorylation of ribosomal protein S6” value (mTor kinase activity) was “remained unaffected” and the LC3-II level (LC3-II [2]) was “high amount of LC3-II”.

With “RRRQRRKKRGY-G (RRRQRRKKRGYG) [HIV-1 TAT, reference compound]” the “autophagy induction (GFP-LC3 puncta)” value (TREX-BCBL-Vector cells [3]) was “no increase in autophagy” and the “cell death (in words)” value (TREX-BCBL-Vector cells [4]) was “no increase in autophagy nor cell death”.

RRRQRRKKRGY-G-FVNLAAAVVE [K-α2m] was tested, and the “autophagy induction (GFP-LC3 puncta)” value (TREX-BCBL-Vector cells [3]) was “no increase in autophagy” and the “cell death (in words)” value (TREX-BCBL-Vector cells [4]) was “no increase in autophagy nor cell death”.

`COC(=O)CC(NC(=O)C(C)NC(=O)C(NC(=O)OCc1ccccc1)C(C)C)C(=O)CF` (stereo not drawn) [zVAD, benzyloxycarbonylvalyl-alanyl-aspartic acid (O-methyl)-fluoro-methylketone] (Cbz-Val-Ala-Asp(OMe)-CH2F; configuration not given here) was tested, and the “growth suppression and death” value (BCBL1 cells) was “effectively induced growth suppression and death of BCBL1 cells”.

For “RRRQRRKKRGY-G-NEMCYVWHLFTQ (RRRQRRKKRGYGNEMCYVWHLFTQ; not fully specified (some residues); also: retro-inverso D-amino acids) [K-α4]”, the “phosphorylation of p70S6K” value (mTor kinase activity) was “marginal reduction”, the “phosphorylation of ribosomal protein S6” value (mTor kinase activity) was “remained unaffected” and the LC3-II level (LC3-II [2]) was “high amount of LC3-II”.

In the case of RRRQRRKKRGY-G-NEMCAAAHAATQ [K-α4m], the “autophagy induction (GFP-LC3 puncta)” value (TREX-BCBL-Vector cells [3]) is reported as “no increase in autophagy” and the “cell death (in words)” value (TREX-BCBL-Vector cells [4]) is reported as “no increase in autophagy nor cell death”.

In the case of “EVVLFLLNVF (also: GST fusion; UniProt F5HEZ4 20-29, looked up, fragment) [DED1 α2 helix, α2 region of KSHV vFLIP amino acids 20-29; tested as mammalian GST fusion]”, the Atg3 binding (Atg3 [1]) is reported as “individually sufficient for Atg3 binding”.

With “5′AAGAUCCUGGACCGUGUCACC3′ [Beclin1 siRNA]” the “endogenous Beclin1 expression” value (Beclin1) was “significantly reduced endogenous Beclin1 expression” and the rapamycin-induced autophagic death (Beclin1; rapamycin, day 5) was “attenuated rapamycin-induced autophagic death”.

`CO[C@H]1C[C@@H]2CC[C@@H](C)[C@@](O)(O2)C(=O)C(=O)N2CCCC[C@H]2C(=O)O[C@H]([C@H](C)C[C@@H]2CC[C@@H](O)[C@H](OC)C2)CC(=O)[C@H](C)/C=C(\C)[C@@H](O)[C@@H](OC)C(=O)[C@H](C)C[C@H](C)/C=C/C=C/C=C/1C` [rapamycin] was tested, and the “dead cells with characteristics of autophagic death (EM)” value [5] was “approximately 60%”.

B1: Flag-HVS vFLIP (other)
chain: MDLKTTVLHITDSFTEEEMYCLLFLINGCIPRNCNAVKISDLIIETLSKSTQWDICLTQCLYVLRKIELLLNLFQVTKEDVKQSFFTQLQLETHVLTLVNVNNNLTAKDEKRLCFILDQFFPRNVVASSVILCVFSNMLCEMPVLECLCQLKKCLKQIGRSDLAKTV
B1: binds [6]; binds [7].

B2: Flag-KSHV vFLIP DED1 (other)
chain: MATYEVLCEVARKLGTDDREVVLFLLNVFIPQPTLAQLIGALRALKEEGRLTFPLLAECLFRAGRRDLLRDLLHLDPRFLERHLAGTMSY
notes: also called DED1 of KSHV vFLIP
B2: binds [6].

B3: Flag-KSHV vFLIP DED2 (other)
chain: FSPYQLTVLHVDGELCARDIRSLIFLSKDTIGSRSTPQTFLHWVYCMENLDLLGPTDVDALMSMLRSLSRVDLQRQVQTLMGLHLSGPSHSQHYRHTP
notes: also called DED2 of KSHV vFLIP
B3: binds [6].

B4: HVS vFLIP: viral FLIP of Herpesvirus saimiri (protein)
chain: B1 chain
modifications: Saimiriine herpesvirus 2
notes: viral FLIP of Herpesvirus saimiri
For B4, the “suppression of starvation- and rapamycin-induced autophagy (GFP-LC3 puncta)” value (NIH3T3 cells) was “strongly suppressed starvation- and rapamycin-induced autophagy; also recorded: had anti-autophagic activity”, the “processed LC3-II” value (LC3-II [8]) was “little or no processed LC3-II” and the Atg3 binding (Atg3 [1]) was “interacted with Atg3 as efficiently as KSHV-vFLIP”. The “Atg3 regions bound (Atg3 deletion mutants)” value (Atg3 [9]) was “Atg3 binding patterns similar to KSHV vFLIP”.
